Read-outs that look alike come from different tables or passages of the source. Values belong to the compound of their own block, whether it stands above or below them.
Assays:
α1A‐adrenoceptor = target: T1, α1A‐adrenoceptor (Homo sapiens, UniProt P35348)
T1 sequence (P35348 1-466): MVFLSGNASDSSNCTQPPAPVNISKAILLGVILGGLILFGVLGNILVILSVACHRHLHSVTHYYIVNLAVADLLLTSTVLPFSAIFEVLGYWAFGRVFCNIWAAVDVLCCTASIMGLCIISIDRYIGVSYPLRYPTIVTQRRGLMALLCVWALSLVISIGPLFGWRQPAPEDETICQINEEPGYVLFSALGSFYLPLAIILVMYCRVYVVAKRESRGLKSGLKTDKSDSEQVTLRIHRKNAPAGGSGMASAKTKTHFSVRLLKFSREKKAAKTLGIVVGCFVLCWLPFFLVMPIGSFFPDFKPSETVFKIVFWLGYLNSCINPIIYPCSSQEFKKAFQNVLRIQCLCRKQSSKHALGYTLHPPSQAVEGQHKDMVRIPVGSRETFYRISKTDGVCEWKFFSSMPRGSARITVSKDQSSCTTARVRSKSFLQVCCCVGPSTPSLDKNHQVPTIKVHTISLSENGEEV

human α2C‐adrenoceptor [1] = target: T2, human α2C‐adrenoceptor (Homo sapiens, UniProt P18825); assay: 3H‐rauwolscine whole cell binding in CHO‐α2C cells; set-up: expressed in transfected cells; host or cells: CHO-K1 with CRE-SPAP reporter
T2 sequence (P18825 1-462): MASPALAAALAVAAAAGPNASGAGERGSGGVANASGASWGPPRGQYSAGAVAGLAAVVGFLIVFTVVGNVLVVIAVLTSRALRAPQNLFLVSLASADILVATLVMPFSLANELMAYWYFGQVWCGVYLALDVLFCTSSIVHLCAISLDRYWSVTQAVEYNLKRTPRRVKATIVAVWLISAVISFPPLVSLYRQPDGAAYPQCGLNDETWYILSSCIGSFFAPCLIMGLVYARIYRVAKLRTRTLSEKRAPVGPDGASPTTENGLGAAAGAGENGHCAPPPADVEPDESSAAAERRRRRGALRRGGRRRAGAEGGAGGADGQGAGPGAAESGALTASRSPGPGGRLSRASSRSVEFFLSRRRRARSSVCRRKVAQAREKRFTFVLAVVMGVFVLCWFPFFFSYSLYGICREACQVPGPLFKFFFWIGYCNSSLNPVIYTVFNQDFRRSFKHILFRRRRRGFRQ

human α2C‐adrenoceptor [2] = target: T2, human α2C‐adrenoceptor; assay: ERK1/2‐phosphorylation in CHO‐α2C cells; format: cell-based; set-up: expressed in transfected cells; host or cells: CHO-K1 with CRE-SPAP reporter; conditions: CHO‐α2C cells; for % 10 μM PDBu, ERK1/2‐phosphorylation: maximum response compared to 10 μM PDBu, mean ± SEM
human α2C‐adrenoceptor [3] = target: T2, human α2C‐adrenoceptor
[4] = tested on: parent CHO cells (no transfected receptor); assay: ERK1/2‐phosphorylation in parent CHO cells; format: cell-based, Chinese hamster; conditions: Cricetulus griseus, read-out: log EC50, ERK1/2‐phosphorylation in parent CHO cells (converted)
α1D‐adrenoceptor = target: T3, α1D‐adrenoceptor (Homo sapiens, UniProt P25100); conditions: CHO-α1D cells
T3 sequence (P25100 1-572): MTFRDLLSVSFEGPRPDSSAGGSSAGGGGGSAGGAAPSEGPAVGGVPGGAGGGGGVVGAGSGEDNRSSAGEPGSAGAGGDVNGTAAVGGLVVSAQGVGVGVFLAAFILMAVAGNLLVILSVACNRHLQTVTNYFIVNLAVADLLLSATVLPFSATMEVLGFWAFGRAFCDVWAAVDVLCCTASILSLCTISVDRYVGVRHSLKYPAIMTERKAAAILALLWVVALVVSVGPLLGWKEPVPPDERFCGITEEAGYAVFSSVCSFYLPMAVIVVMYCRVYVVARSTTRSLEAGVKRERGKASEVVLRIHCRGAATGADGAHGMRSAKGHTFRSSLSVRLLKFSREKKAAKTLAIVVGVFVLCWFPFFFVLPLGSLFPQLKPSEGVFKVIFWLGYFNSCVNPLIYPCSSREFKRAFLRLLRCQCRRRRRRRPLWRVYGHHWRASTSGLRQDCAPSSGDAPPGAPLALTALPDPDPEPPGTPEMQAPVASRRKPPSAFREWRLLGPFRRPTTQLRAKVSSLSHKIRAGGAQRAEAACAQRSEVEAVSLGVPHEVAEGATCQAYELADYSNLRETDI

[5] = tested on: parent CHO cells (no transfected receptor); set-up: method as in PMID 34355529; conditions: non‐α‐mediated mechanism; cited from earlier work
human α2A‐adrenoceptor [6] = target: T4, human α2A‐adrenoceptor (Homo sapiens, UniProt P08913); assay: 3H‐rauwolscine whole cell binding in CHO‐α2A cells; set-up: expressed in transfected cells; host or cells: CHO-K1 with CRE-SPAP reporter
T4 sequence (P08913 1-465): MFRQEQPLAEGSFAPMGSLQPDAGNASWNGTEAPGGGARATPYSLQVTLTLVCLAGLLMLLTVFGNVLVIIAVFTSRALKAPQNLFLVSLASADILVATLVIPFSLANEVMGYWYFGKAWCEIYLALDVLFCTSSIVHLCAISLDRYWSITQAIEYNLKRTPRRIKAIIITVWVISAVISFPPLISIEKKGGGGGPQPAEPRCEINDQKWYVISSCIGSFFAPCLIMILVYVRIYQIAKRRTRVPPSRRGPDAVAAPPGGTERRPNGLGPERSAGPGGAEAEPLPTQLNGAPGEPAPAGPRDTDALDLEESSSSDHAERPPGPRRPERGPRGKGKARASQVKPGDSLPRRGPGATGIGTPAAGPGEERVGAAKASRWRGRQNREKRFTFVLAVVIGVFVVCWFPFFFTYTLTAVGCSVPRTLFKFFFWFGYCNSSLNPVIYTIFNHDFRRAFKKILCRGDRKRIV

human α2A‐adrenoceptor [7] = target: T4, human α2A‐adrenoceptor
human α2A‐adrenoceptor [8] = target: T4, human α2A‐adrenoceptor; remark: listed apart in the source
human α2A‐adrenoceptor [9] = target: T4, human α2A‐adrenoceptor; assay: ERK1/2‐phosphorylation in CHO‐α2A cells; format: cell-based; set-up: expressed in transfected cells; host or cells: CHO-K1 with CRE-SPAP reporter; conditions: CHO‐α2A, maximum response compared to 10 μM PDBu
[10] = CHO‐α2C cells, % inhibition from the 3 μM forskolin control, mean ± SEM
[11] = CHO‐α2C cells, CRE‐SPAP production in the absence of forskolin

SMILES: CS(=O)(=O)Nc1c(O)ccc2c1CCCC2C1=NCCN1 (stereo not shown) [A61603]
higher α1A‐affinity than for any other α‐adrenoceptor (α1A‐adrenoceptor): 1000 fold
IC50 (human α2C‐adrenoceptor [1]; 3H‐rauwolscine whole cell binding, no KD obtained, read-out: IC50 in binding, CHO‐α2C): > 100000 nM
IC50 (log) in binding, no KD obtained (human α2C‐adrenoceptor [1]; CHO‐α2C cells, 3H‐rauwolscine whole cell binding, printed as log value in the Log KD column): IC50 > −4
% 10 μM PDBu, ERK1/2‐phosphorylation (human α2C‐adrenoceptor [2]): 149.2 ± 30.3%
Log EC50, ERK1/2‐phosphorylation (human α2C‐adrenoceptor [2]; given as negative log EC50, mean ± SEM): −7.26 ± 0.15
Log efficacy ratio (KD/IC50) (human α2C‐adrenoceptor [3]): >2.68
% inhibition, CRE‐SPAP (with forskolin) (human α2C‐adrenoceptor [3]; [10]): 80.5 ± 3.0%
Log EC50 (Gs), CRE‐SPAP (without forskolin) (human α2C‐adrenoceptor [3]; [11]): No response
Log IC50 (Gi), CRE‐SPAP (with forskolin) (human α2C‐adrenoceptor [3]; CHO‐α2C cells, inhibition of 3 μM forskolin‐stimulated CRE‐SPAP production, given as negative log IC50, mean ± SEM): −6.68 ± 0.09

SMILES: CC(C)C[C@H]1C(=O)N2CCC[C@H]2[C@]2(O)O[C@](NC(=O)[C@@H]3C=C4c5cccc6[nH]c(Br)c(c56)C[C@H]4N(C)C3)(C(C)C)C(=O)N12 [Bromocriptine]
EC50 [4]: 117 nM
specific binding inhibited (early plateau) (α1D‐adrenoceptor): 71.2 ± 3.4%

SMILES: Cc1cc(C(C)(C)C)c(O)c(C)c1CC1=NCCN1 [Oxymetazoline]
ERK1/2‐phosphorylation agonist response in parent cells [5]: stimulate ERK1/2‐phosphorylation agonist responses

SMILES: CN1C[C@H](C(=O)N[C@]2(C)O[C@@]3(O)[C@@H]4CCCN4C(=O)[C@H](Cc4ccccc4)N3C2=O)C[C@@H]2c3cccc4[nH]cc(c34)C[C@H]21 [Dihydroergotamine]
ERK1/2‐phosphorylation agonist response in parent cells [5]: stimulate ERK1/2‐phosphorylation agonist responses

SMILES: Cc1cc(C(C)(C)C)cc(C)c1CC1=NCCN1 [Xylometazoline]
Kd (human α2A‐adrenoceptor [6]): 24 nM
Selectivity ratio α2A vs α2B (higher affinity for α2A) (human α2A‐adrenoceptor [6]): 151
Selectivity ratio α2A vs α2C (higher affinity for α2A) (human α2A‐adrenoceptor [6]): 4.5
Kd (human α2A‐adrenoceptor [6]; Log KD, CHO‐α2A): 24 nM
Kd (human α2C‐adrenoceptor [1]): 107 nM
Selectivity ratio α2B vs α2C (higher affinity for α2C) (human α2C‐adrenoceptor [1]): 33.9
Kd (human α2C‐adrenoceptor [1]; Log KD, CHO‐α2C): 107 nM
% inhibition, CRE‐SPAP (with forskolin) (human α2C‐adrenoceptor [3]): 57.2 ± 3.9%
IC50 (human α2C‐adrenoceptor [3]): 63.1 nM
Log EC50 (Gs), CRE‐SPAP (without forskolin) (human α2C‐adrenoceptor [3]): No response
Log efficacy ratio (KD/IC50) (human α2C‐adrenoceptor [3]): 0.23
% inhibition, CRE‐SPAP (with forskolin) (human α2A‐adrenoceptor [7]): 73.9 ± 4.6%
IC50 (human α2A‐adrenoceptor [7]): 7.41 nM
Log EC50 (Gs), CRE‐SPAP (without forskolin) (human α2A‐adrenoceptor [7]): No response
Log efficacy ratio (KD/IC50) (human α2A‐adrenoceptor [7]): 0.51
ERK1/2‐phosphorylation agonist response in parent cells [5]: stimulate ERK1/2‐phosphorylation agonist responses

% 3 μM forskolin, CRE‐SPAP (without forskolin) (human α2A‐adrenoceptor [8]): 15.8 ± 4.7%
Kd (human α2C‐adrenoceptor [1]; 3H‐rauwolscine whole cell binding, living cells, negative log KD, mean ± SEM, read-out: Log KD, CHO‐α2C (converted)): 1480 nM
Kd (human α2C‐adrenoceptor [1]; CHO‐α2C cells, 3H‐rauwolscine whole cell binding, given as negative log KD, mean only (SEM in Table 4), read-out: Log KD (converted)): 1480 nM
% 10 μM PDBu, ERK1/2‐phosphorylation (human α2C‐adrenoceptor [2]): 133.6 ± 17.9%
% inhibition, CRE‐SPAP (with forskolin) (human α2C‐adrenoceptor [3]; [10]): 72.1 ± 4.4%
Log EC50 (Gs), CRE‐SPAP (without forskolin) (human α2C‐adrenoceptor [3]; [11]): No response
IC50 (human α2C‐adrenoceptor [3]; Log IC50 (Gi), CRE‐SPAP (with forskolin), CHO‐α2C cells, inhibition of 3 μM forskolin‐stimulated CRE‐SPAP production, given as negative log IC50, mean ± SEM): 302 nM
% 10 μM PDBu, ERK1/2‐phosphorylation (human α2A‐adrenoceptor [9]): 135.7 ± 17.3%
SMILES: Clc1ccc2nsnc2c1NC1=NCCN1 [Tizanidine]

Reference: paper PMC9471048, “The signaling and selectivity of α‐adrenoceptor agonists for the human α2A, α2B and α2C‐adrenoceptors and comparison with human α1 and β‐adrenoceptors” (Pharmacology Research & Perspectives, 2022)
